Source: US12534452B2, “N-(1H-imidazol-2-yl)benzamide compound and pharmaceutical composition comprising the same as active ingredient” (KAINOS MEDICINE, INC., priority 2019, dated 2026)

Target: IRAK4 (Homo sapiens (Human), UniProt Q9NWZ3)
Experiment: In vitro IRAK4 phosphorylation activity assay
Type: biochemical
Conditions: [γ-33P]-ATP, myelin basic protein substrate, 40 minutes at room temperature; categories
Method in brief: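 Radiometric filter-binding assay, no compound–kinase preincubation; 8 mM MOPS pH 7.0, 0.2 mM EDTA, 10 mM Mg acetate, 0.33 mg/mL myelin basic protein substrate, [γ-33P]-ATP. Reaction 40 min at room temperature, stopped with phosphoric acid, scintillation counting; IC50 reported in categories.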

Sequence of IRAK4 (Q9NWZ3 whole entry): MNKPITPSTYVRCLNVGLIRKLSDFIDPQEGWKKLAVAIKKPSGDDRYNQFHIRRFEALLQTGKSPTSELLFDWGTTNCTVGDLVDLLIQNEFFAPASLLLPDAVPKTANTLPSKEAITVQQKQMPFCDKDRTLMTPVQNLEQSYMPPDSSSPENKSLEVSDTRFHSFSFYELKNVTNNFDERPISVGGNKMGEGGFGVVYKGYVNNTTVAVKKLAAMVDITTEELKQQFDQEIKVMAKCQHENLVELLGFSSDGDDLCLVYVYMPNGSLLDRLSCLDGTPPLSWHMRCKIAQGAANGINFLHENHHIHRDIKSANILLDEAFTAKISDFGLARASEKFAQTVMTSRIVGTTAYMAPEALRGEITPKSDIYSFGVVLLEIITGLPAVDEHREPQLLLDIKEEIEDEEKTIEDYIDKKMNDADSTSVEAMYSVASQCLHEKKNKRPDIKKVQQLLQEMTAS

| SMILES | IC50 |
| --- | --- |
| Cn1cc(-c2cccc(C(=O)Nc3nc(CCCC(=O)N4CCCC(F)(F)C4)cn3-c3ccccc3)c2)cn1 [Example 175, N-(4-(4-(3,3-difluoropiperidin-1-yl)-4-oxobutyl)-1-phenyl-1H-imidazol-2-yl)-3-(1-methyl-1H-pyrazol-4-yl)benzamide] | < 50 nM |
| Cn1cc(-c2cccc(C(=O)Nc3nc(CCCC(=O)N4CCCC[C@@H]4C(F)(F)F)cn3-c3ccccc3)c2)cn1 [Example 176, (R)-3-(1-methyl-1H-pyrazol-4-yl)-N-(4-(4-oxo-4-(2-(trifluoromethyl)piperidin-1-yl)butyl)-1-phenyl-1H-imidazol-2-yl)benzamide] | < 50 nM |
| COC1CCN(C(=O)CCCc2cn(-c3ccccc3)c(NC(=O)c3cccc(-c4cnn(C)c4)c3)n2)CC1 [Example 177, N-(4-(4-(4-methoxypiperidin-1-yl)-4-oxobutyl)-1-phenyl-1H-imidazol-2-yl)-3-(1-methyl-1H-pyrazol-4-yl)benzamide] | < 50 nM |
| Cn1cc(-c2cccc(C(=O)Nc3nc(CCCC(=O)N4CCCC(O)C4)cn3-c3ccccc3)c2)cn1 (stereo not shown) [Example 178, N-(4-(4-(3-hydroxypiperidin-1-yl)-4-oxobutyl)-1-phenyl-1H-imidazol-2-yl)-3-(1-methyl-1H-pyrazol-4-yl)benzamide] | < 50 nM |
| Cn1cc(-c2cccc(C(=O)Nc3nc(CCCC(=O)NC4CCOC4)cn3-c3ccccc3)c2)cn1 (stereo not shown) [Example 179, 3-(1-methyl-1H-pyrazol-4-yl)-N-(4-(4-oxo-4-((tetrahydrofuran-3-yl)amino)butyl)-1-phenyl-1H-imidazol-2-yl)benzamide] | < 50 nM |
| Cn1cc(-c2cccc(C(=O)Nc3nc(CCCC(=O)NCC4CCOC4)cn3-c3ccccc3)c2)cn1 (stereo not shown) [Example 180, 3-(1-methyl-1H-pyrazol-4-yl)-N-(4-(4-oxo-4-(((tetrahydrofuran-3-yl)methyl)amino)butyl)-1-phenyl-1H-imidazol-2-yl)benzamide] | < 50 nM |
| Cn1cc(-c2cccc(C(=O)Nc3nc(CCCC(=O)N4CCN(C(C)(C)C)CC4)cn3-c3ccccc3)c2)cn1 [Example 181, N-(4-(4-(4-(tert-butyl)piperazin-1-yl)-4-oxobutyl)-1-phenyl-1H-imidazol-2-yl)-3-(1-methyl-1H-pyrazol-4-yl)benzamide] | < 50 nM |
| Cn1cc(-c2cccc(C(=O)Nc3nc(CCCC(=O)N4CCN(C5CCCCC5)CC4)cn3-c3ccccc3)c2)cn1 [Example 182, N-(4-(4-(4-cyclohexylpiperazin-1-yl)-4-oxobutyl)-1-phenyl-1H-imidazol-2-yl)-3-(1-methyl-1H-pyrazol-4-yl)benzamide] | < 50 nM |
| CN1CCCN(C(=O)CCCc2cn(-c3ccccc3)c(NC(=O)c3cccc(-c4cnn(C)c4)c3)n2)CC1 [Example 183, N-(4-(4-(4-methyl-1,4-diazepan-1-yl)-4-oxobutyl)-1-phenyl-1H-imidazol-2-yl)-3-(1-methyl-1H-pyrazol-4-yl)benzamide] | < 50 nM |
| Cn1cc(-c2cccc(C(=O)Nc3nc(CCCC(=O)NCCN4CCOCC4)cn3-c3ccccc3)c2)cn1 [Example 184, 3-(1-methyl-1H-pyrazol-4-yl)-N-(4-(4-((2-morpholinoethyl)amino)-4-oxobutyl)-1-phenyl-1H-imidazol-2-yl)benzamide] | > 100 nM |
| Cn1cc(-c2cccc(C(=O)Nc3nc(CCCC(=O)NC[C@@H](F)C(C)(C)O)cn3-c3ccccc3)c2)cn1 [Example 185, (R)—N-(4-(4-((2-fluoro-3-hydroxy-3-methylbutyl)amino)-4-oxobutyl)-1-phenyl-1H-imidazol-2-yl)-3-(1-methyl-1H-pyrazol-4-yl)benzamide] | 50 to 100 nM |
| CN1CCN(CCCNC(=O)CCCc2cn(-c3ccccc3)c(NC(=O)c3cccc(-c4cnn(C)c4)c3)n2)CC1 [Example 186, 3-(1-methyl-1H-pyrazol-4-yl)-N-(4-(4-((3-(4-methylpiperazin-1-yl)propyl)amino)-4-oxobutyl)-1-phenyl-1H-imidazol-2-yl)benzamide] | 50 to 100 nM |
| CN1CCN(CCNC(=O)CCCc2cn(-c3ccccc3)c(NC(=O)c3cccc(-c4cnn(C)c4)c3)n2)CC1 [Example 187, 3-(1-methyl-1H-pyrazol-4-yl)-N-(4-(4-((2-(4-methylpiperazin-1-yl)ethyl)amino)-4-oxobutyl)-1-phenyl-1H-imidazol-2-yl)benzamide] | < 50 nM |
| Cn1cc(-c2cccc(C(=O)Nc3nc(CCCC(=O)N4CCN(c5ccccc5)CC4)cn3-c3ccccc3)c2)cn1 [Example 188, 3-(1-methyl-1H-pyrazol-4-yl)-N-(4-(4-oxo-4-(4-phenylpiperazin-1-yl)butyl)-1-phenyl-1H-imidazol-2-yl)benzamide] | < 50 nM |
| Cn1cc(-c2cccc(C(=O)Nc3nc(CCCC(N)=O)cn3-c3ccccc3)c2)cn1 [Example 189, N-(4-(4-amino-4-oxobutyl)-1-phenyl-1H-imidazol-2-yl)-3-(1-methyl-1H-pyrazol-4-yl)benzamide] | < 50 nM |
| Cn1cc(-c2cccc(C(=O)Nc3nc(CCCC(=O)Nc4ccn(C)n4)cn3-c3ccccc3)c2)cn1 [Example 190, N-(4-(4-((1-methyl-1H-pyrazol-3-yl)amino)-4-oxobutyl)-1-phenyl-1H-imidazol-2-yl)-3-(1-methyl-1H-pyrazol-4-yl)benzamide] | < 50 nM |

| SMILES | IC50 |
| --- | --- |
| Cn1cc(-c2cccc(C(=O)Nc3nc(CCCC(=O)Nc4ccc5c(cnn5C)c4)cn3-c3ccccc3)c2)cn1 [Example 191, N-(4-(4-((1-methyl-1H-indazol-5-yl)amino)-4-oxobutyl)-1-phenyl-1H-imidazol-2-yl)-3-(1-methyl-1H-pyrazol-4-yl)benzamide] | < 50 nM |
| Cn1cc(-c2cccc(C(=O)Nc3nc(CCC(=O)Nc4ccccc4)cn3-c3ccccc3)c2)cn1 [Example 193, 3-(1-methyl-1H-pyrazol-4-yl)-N-(4-(3-oxo-3-(phenylamino)propyl)-1-phenyl-1H-imidazol-2-yl)benzamide] | 50 to 100 nM |
| CN1CCN(C(=O)CCc2cn(-c3ccccc3)c(NC(=O)c3cccc(-c4cnn(C)c4)c3)n2)CC1 [Example 194, 3-(1-methyl-1H-pyrazol-4-yl)-N-(4-(3-(4-methylpiperazin-1-yl)-3-oxopropyl)-1-phenyl-1H-imidazol-2-yl)benzamide] | < 50 nM |
| CN1CCCN(C(=O)CCc2cn(-c3ccccc3)c(NC(=O)c3cccc(-c4cnn(C)c4)c3)n2)CC1 [Example 195, N-(4-(3-(4-methyl-1,4-diazepan-1-yl)-3-oxopropyl)-1-phenyl-1H-imidazol-2-yl)-3-(1-methyl-1H-pyrazol-4-yl)benzamide] | < 50 nM |
| Cn1cc(-c2cccc(C(=O)Nc3nc(CCCCC(=O)NC4CCOCC4)cn3-c3ccccc3)c2)cn1 [Example 197, 3-(1-methyl-1H-pyrazol-4-yl)-N-(4-(5-oxo-5-((tetrahydro-2H-pyran-4-yl)amino)pentyl)-1-phenyl-1H-imidazol-2-yl)benzamide] | < 50 nM |
| Cn1cc(-c2cccc(C(=O)Nc3nc(CCCCC(=O)NCCN4CCOCC4)cn3-c3ccccc3)c2)cn1 [Example 198, 3-(1-methyl-1H-pyrazol-4-yl)-N-(4-(5-((2-morpholinoethyl)amino)-5-oxopentyl)-1-phenyl-1H-imidazol-2-yl)benzamide] | < 50 nM |
| Cn1cc(-c2cccc(C(=O)Nc3nc(CCCCCC(=O)NC4CC4)cn3-c3ccccc3)c2)cn1 [Example 199, N-(4-(6-(cyclopropylamino)-6-oxohexyl)-1-phenyl-1H-imidazol-2-yl)-3-(1-methyl-1H-pyrazol-4-yl)benzamide] | < 50 nM |
| Cn1cc(-c2cccc(C(=O)Nc3nc(CCCCCC(=O)N4CCCCC4)cn3-c3ccccc3)c2)cn1 [Example 200, 3-(1-methyl-1H-pyrazol-4-yl)-N-(4-(6-oxo-6-(piperidin-1-yl)hexyl)-1-phenyl-1H-imidazol-2-yl)benzamide] | < 50 nM |
| CN1CCN(C(=O)CCCCCc2cn(-c3ccccc3)c(NC(=O)c3cccc(-c4cnn(C)c4)c3)n2)CC1 [Example 201, 3-(1-methyl-1H-pyrazol-4-yl)-N-(4-(6-(4-methylpiperazin-1-yl)-6-oxohexyl)-1-phenyl-1H-imidazol-2-yl)benzamide] | < 50 nM |
| Cn1cc(-c2cccc(C(=O)Nc3nc(CCCC(=O)N4CCNCC4)cn3-c3ccccc3)c2)cn1 [Example 202, 3-(1-methyl-1H-pyrazol-4-yl)-N-(4-(4-oxo-4-(piperazin-1-yl)butyl)-1-phenyl-1H-imidazol-2-yl)benzamide] | < 50 nM |
| Cn1cc(-c2cccc(C(=O)Nc3nc(CCC(=O)N4CCNCC4)cn3-c3ccccc3)c2)cn1 [Example 203, 3-(1-methyl-1H-pyrazol-4-yl)-N-(4-(3-oxo-3-(piperazin-1-yl)propyl)-1-phenyl-1H-imidazol-2-yl)benzamide] | 50 to 100 nM |
| Cn1cc(-c2cccc(C(=O)Nc3nc(CCCCC(=O)N4CCNCC4)cn3-c3ccccc3)c2)cn1 [Example 204, 3-(1-methyl-1H-pyrazol-4-yl)-N-(4-(5-oxo-5-(piperazin-1-yl)pentyl)-1-phenyl-1H-imidazol-2-yl)benzamide] | < 50 nM |
| CC(=O)N1CCN(C(=O)CCCc2cn(-c3ccccc3)c(NC(=O)c3cccc(-c4cnn(C)c4)c3)n2)CC1 [Example 205, N-(4-(4-(4-acetylpiperazin-1-yl)-4-oxobutyl)-1-phenyl-1H-imidazol-2-yl)-3-(1-methyl-1H-pyrazol-4-yl)benzamide] | < 50 nM |
| Cn1cc(-c2cccc(C(=O)Nc3nc(CCCC(=O)N4CCN(S(C)(=O)=O)CC4)cn3-c3ccccc3)c2)cn1 [Example 206, 3-(1-methyl-1H-pyrazol-4-yl)-N-(4-(4-(4-(methylsulfonyl)piperazin-1-yl)-4-oxobutyl)-1-phenyl-1H-imidazol-2-yl)benzamide] | < 50 nM |
| Cn1cc(-c2cccc(C(=O)Nc3nc(CCCC(=O)N4CCC[C@H](C(=O)O)C4)cn3-c3ccccc3)c2)cn1 [Example 207, (S)-1-(4-(2-(3-(1-methyl-1H-pyrazol-4-yl)benzamido)-1-phenyl-1H-imidazol-4-yl)butanoyl)piperidine-3-carboxylic acid] | < 50 nM |
